Reference: patent US8337835B2, “Use of an endogenous ligand for peroxisome proliferator activated receptor alpha to treat liver disorders” (priority 2009, dated 2012)

Target: T1, PPARα (Mus musculus, UniProt P23204)
T1 construct: expressed in transfected cells; host or cells: liver of chow- or ZFD-fed WT mice on a PPARα null background, infected with AdFLAG-PPARα adenovirus
T1 sequence (P23204 1-468): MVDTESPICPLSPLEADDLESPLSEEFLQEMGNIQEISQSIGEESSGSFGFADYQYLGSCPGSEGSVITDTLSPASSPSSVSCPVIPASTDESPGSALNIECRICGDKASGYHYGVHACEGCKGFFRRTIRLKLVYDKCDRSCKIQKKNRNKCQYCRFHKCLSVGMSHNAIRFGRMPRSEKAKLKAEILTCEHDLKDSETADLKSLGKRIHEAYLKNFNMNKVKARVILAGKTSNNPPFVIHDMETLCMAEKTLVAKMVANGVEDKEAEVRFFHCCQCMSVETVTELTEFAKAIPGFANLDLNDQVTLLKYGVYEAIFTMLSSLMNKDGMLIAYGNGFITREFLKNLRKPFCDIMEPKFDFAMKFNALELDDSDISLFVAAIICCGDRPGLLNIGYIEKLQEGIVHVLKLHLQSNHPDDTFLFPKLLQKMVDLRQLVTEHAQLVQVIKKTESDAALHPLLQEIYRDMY
Assay: In vivo competitive inhibition: displacement of 16:0/18:1-GPC (m/z 766) from FLAG-tagged PPARα, ESI/MS
Settings: 50 μg/g intraperitoneal; chow and zero fat diet fed WT mice on PPARα null background with AdFLAG-PPARα; 0-60 min
Protocol: Freshly harvested livers (˜100 mg) were gently homogenized in ice-cold non-detergent hypotonic buffer (10 mM HEPES, pH 7.9, 1.5 mM MgCl2, 10 mM KCl, 100 mM DTT, protease and phosphatase inhibitor cocktail). After an additional 10 min incubation in the hypotonic buffer, the homogenate was centrifuged at 8000×g at 4° C. for 20 min. The pellet was homogenized in ice-cold extraction buffer (10 mM HEPES, pH 7.9, 1.5 mM MgCl2, 0.21 M NaCl, 0.2 mM EDTA, 25% (v/v) glycerol, 100 mM DTT, protease and phosphatase inhibitor cocktail), placed on a rotating shaker at 4° C. for 1 h, then centrifuged at 18,000×g for 10 min. […]
The in vivo displacement of the endogenous PPARα ligand 16:0/18:1-GPC by the PPARα agonist Wy14,643 was assessed by electrospray ionization mass spectrometry (ESI/MS) Analysis. […] Wy14,643 in chow fed WT mice on a PPARα null background injected with AdFLAG-PPARα adenovirus are shown in FIGS. 4A-D. Similarly, representative ESI/MS scans of GPC species at different time intervals following an intraperitoneal injection of 50 μg/g Wy14,643 in ZFD fed mice are shown in FIGS. 4E-H. Insets in FIGS. 4A-H depict the ion at m/z 766 (16:0/18:1-GPC) that is time-dependently competed away with Wy14,643 while quantification of the relative abundance of the peak abundance of m/z 766 ion in response to Wy14,643 is shown in FIG. 4I. […]

Compound: Cc1cccc(Nc2cc(Cl)nc(SCC(=O)O)n2)c1C [Wy14,643, 4-Chloro-6-(2,3-xylidino)-2-pyrimidinylthioacetic acid]
- displacement of 16:0/18:1-GPC (m/z 766) from PPARα: displaced from PPARα within minutes
